In one assay the target is human STING (Homo sapiens, UniProt Q86WV6). Put plainly: Fluorescence Thermal Shift assay. In kind it is binding. As to conditions: 50 μM compound; STING 0.1 mg/ml; 20 minutes preincubation; read-out: [hSTING] FTS, ΔTm [° C.] for 50 μM. In a few lines: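 Human STING at a final 0.1 mg/ml was preincubated with compound for 20 min in 50 mM Hepes, 150 mM NaCl, pH 7.5, then SyproOrange dye was added. Thermal unfolding ran from 25 to 99° C at 0.033° C/s, continuous ramp. Values are reported as ΔTm (° C).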

Assay [1] concerns NF-κB pathway in THP-1 dual cells. Put plainly: THP-1 Dual Reporter Assay, NF-κB pathway (SEAP reporter). The settings on record: Homo sapiens, THP1-Dual, 18 h of stimulation, absorbance at 630 nm, read-out: THP1 Dual EC50 (μM) NFkB. In kind it is cell-based. In a few lines:
(§1)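 THP-1 dual cells stimulated 18 h with STING agonist; medium then sampled. IRF pathway: luciferase (ISG54 promoter/ISRE) read as luminescence immediately after reagent addition. NF-κB pathway: SEAP (IFN-β minimal promoter/NF-κB elements) developed 2 h at 37 °C, absorbance at 630 nm.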
For orientation: A reporter such as luciferase makes a cellular process visible.

The subject of assay [2] is interferon regulatory factor (IRF) pathway in THP-1 dual cells. Put plainly: THP-1 Dual Reporter Assay, IRF pathway (luciferase reporter). In kind it is cell-based. As to conditions: Homo sapiens, THP1-Dual, 18 h of stimulation, luminescence. In short, it runs like this: as §1

Some results are limits rather than exact numbers.

Sequence of human STING (Q86WV6 whole entry H232R): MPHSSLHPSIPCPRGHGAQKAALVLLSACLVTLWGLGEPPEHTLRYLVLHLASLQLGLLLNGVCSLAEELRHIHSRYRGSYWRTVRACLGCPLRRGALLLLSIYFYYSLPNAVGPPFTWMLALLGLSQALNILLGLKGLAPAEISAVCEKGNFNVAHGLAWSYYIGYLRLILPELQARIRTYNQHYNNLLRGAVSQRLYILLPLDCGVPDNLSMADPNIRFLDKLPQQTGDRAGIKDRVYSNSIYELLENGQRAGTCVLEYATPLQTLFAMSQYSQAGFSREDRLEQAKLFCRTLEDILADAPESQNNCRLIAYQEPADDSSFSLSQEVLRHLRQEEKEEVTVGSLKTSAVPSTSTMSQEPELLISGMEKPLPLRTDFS

In general, ΔTm refers to the change in melting temperature against a reference sample. Usually EC50 stands for the concentration giving half of the maximal effect. In the case of `O=c1c(CN(CCCn2cnc3ncccc32)Cc2ccncc2)coc2c1ccc1ccccc12` [Example 68, 3-{[(3-{1H-imidazo[4,5-b]pyridin-1-yl}propyl)(pyridin-4-ylmethyl)amino]methyl}-4H-benzo[h]chromen-4-one], the shift in melting temperature (ΔTm) at 50 µM at human STING was > 2.5 °C. Also, the 50% effective concentration (EC50) in assay [1] and in assay [2] was ≤ 10 µM each time.

As to `Cc1oc2cc(N3CCNCC3)c(F)cc2c(=O)c1CN(CCCc1cccnc1)Cc1ccncc1` [Example 69, 6-fluoro-2-methyl-7-(piperazin-1-yl)-3-({[3-(pyridin-3-yl)propyl][(pyridin-4-yl)methyl]amino}methyl)-4H-chromen-4-one], the shift in melting temperature (ΔTm) at 50 µM at human STING was > 2.5 °C. In addition, the concentration for a half-maximal effect (EC50) in assay [1] and in assay [2] was ≤ 10 µM in each case.

For `Cc1oc2cc(N3CCOCC3)c(F)cc2c(=O)c1CN(CCCc1cccnc1)Cc1ccncc1` [Example 70, 6-fluoro-2-methyl-7-(morpholin-4-yl)-3-({[3-(pyridin-3-yl)propyl][(pyridin-4-yl)methyl]amino}methyl)-4H-chromen-4-one], at human STING, the ΔTm at 50 µM is > 2.5 °C. Moreover, the EC50 in assay [1] and in assay [2] was ≤ 10 µM throughout.

For the compound `O=c1c(CN(CCCn2ccnc2)Cc2ccncc2)coc2cc(-c3cc[nH]n3)ccc12` [Example 71, 3-({[3-(1H-imidazol-1-yl)propyl](pyridin-4-ylmethyl)amino}methyl)-7-(1H-pyrazol-3-yl)-4H-chromen-4-one], at human STING, the shift in melting temperature (ΔTm) at 50 µM is > 2.5 °C. The half-maximal effective concentration (EC50) was 10 to 20 µM in assay [1] and ≤ 10 µM in assay [2].

Regarding `CC(CCn1cnc2ccccc21)N(Cc1ccncc1)Cc1coc2c(ccc3ccccc32)c1=O` (stereo not drawn) [Example 72, 3-({[4-(1H-1,3-benzodiazol-1-yl)butan-2-yl](pyridin-4-ylmethyl)amino}methyl)-4H-benzo[h]chromen-4-one], the thermal shift (ΔTm) at 50 µM on human STING is < 2.5 °C. Moreover, the EC50 in assay [1] and in assay [2] was ≤ 10 µM each time.

Consider `Cc1oc2cc(Br)c(F)cc2c(=O)c1CN(CCCn1cnc2cncnc21)Cc1ccncc1` [Example 73, 7-bromo-6-fluoro-2-methyl-3-({[3-(9H-purin-9-yl)propyl][(pyridin-4-yl)methyl]amino}methyl)-4H-chromen-4-one], for which the ΔTm at 50 µM on human STING is > 2.5 °C. For the same compound, the half-maximal effective concentration (EC50) in assay [1] is ≤ 10 µM; in assay [2], 10 to 20 µM.

With `O=c1c(CN(CCCn2ccnc2)Cc2ccncc2)c[nH]c2ccccc12` [Example 74, 3-({[3-(1H-imidazol-1-yl)propyl][(pyridin-4-yl)methyl]amino}methyl)-1,4-dihydroquinolin-4-one], the shift in melting temperature (ΔTm) at 50 µM at human STING is < 2.5 °C. The concentration giving a half-maximal response (EC50) in assay [1] and in assay [2] was ≥ 20 µM each time.

`Cc1ccc2c(=O)c(CN(CCCn3cnc4c(=O)[nH]cnc43)Cc3ccncc3)c(C)oc2c1C` [Example 75, 9-(3-{[(pyridin-4-yl)methyl][(2,7,8-trimethyl-4-oxo-4H-chromen-3-yl)methyl]amino}propyl)-6,9-dihydro-1H-purin-6-one]: the ΔTm at 50 µM on human STING is > 2.5 °C. For the same compound, the results for the 50% effective concentration (EC50) in assay [1] and in assay [2] were 10 to 20 µM and ≤ 10 µM, respectively.

For the compound `COc1cc2ncn(CCCN(Cc3ccncc3)Cc3coc4c(ccc5ccccc54)c3=O)c2cc1OC` [Example 76, 3-({[3-(5,6-dimethoxy-1H-1,3-benzodiazol-1-yl)propyl](pyridin-4-ylmethyl)amino}methyl)-4H-benzo[h]chromen-4-one], at human STING, the thermal shift (ΔTm) at 50 µM is > 2.5 °C. For the same compound, the EC50 in assay [1] and in assay [2] was ≤ 10 µM each time.

Turning to `COc1cc(CN(CCCc2cccnc2)Cc2c(C)oc3cc(N4CCOCC4)c(F)cc3c2=O)ccn1` [Example 77, 6-fluoro-3-({[(2-methoxypyridin-4-yl)methyl][3-(pyridin-3-yl)propyl]amino}methyl)-2-methyl-7-(morpholin-4-yl)-4H-chromen-4-one], the ΔTm at 50 µM on human STING is < 2.5 °C. For the same compound, the 50% effective concentration (EC50) in assay [1] and in assay [2] was ≤ 10 µM in each case.

The values above are taken from US12162863B2, “Modulators of stimulator of interferon genes (STING)” (RYVU THERAPEUTICS S.A., priority 2018, dated 2024).
